Test results reported in patent US7368578B2, “Five-membered heterocyclic compounds” (Takeda Pharmaceutical Company Limited, priority 2002, dated 2008).

| melting point [°C] | Compound |
| --- | --- |
| 107 to 108 | CCCc1nnc(/C=C/c2cc(OCc3ccc(OCc4nc(-c5ccco5)oc4C)c(OC)c3)nn2-c2ccccc2)o1 [Example 138, 2-((E)-2-{3-[(4-{[2-(2-furyl)-5-methyl-1,3-oxazol-4-yl]methoxy}-3-methoxybenzyl)oxy]-1-phenyl-1H-pyrazol-5-yl}ethenyl)-5-propyl-1,3,4-oxadiazole] |
| 154 to 155 | COc1cc(COc2cc(/C=C/c3cscn3)n(-c3ccccc3)n2)ccc1OCc1nc(-c2ccco2)oc1C [Example 139, 2-(2-furyl)-4-({2-methoxy-4-[({1-phenyl-5-[(E)-2-(1,3-thiazol-4-yl)ethenyl]-1H-pyrazol-3-yl}oxy)methyl]phenoxy}methyl)-5-methyl-1,3-oxazole] |
| 122 to 123 | COc1cc(COc2cc(/C=C/c3ccccn3)n(-c3ccccc3)n2)ccc1OCc1nc(-c2ccco2)oc1C [Example 140, 2-((E)-2-{3-[(4-{[2-(2-furyl)-5-methyl-1,3-oxazol-4-yl]methoxy}-3-methoxybenzyl)oxy]-1-phenyl-1H-pyrazol-5-yl}ethenyl)pyridine] |
| 104 to 105 | COc1cc(COc2cc(CCc3ccccn3)n(-c3ccccc3)n2)ccc1OCc1nc(-c2ccco2)oc1C [Example 141, 2-(2-{3-[(4-{[2-(2-furyl)-5-methyl-1,3-oxazol-4-yl]methoxy}-3-methoxybenzyl)oxy]-1-phenyl-1H-pyrazol-5-yl}ethyl)pyridine] |
| 95 to 96 | COc1cc(COc2cc(Cn3cncn3)n(-c3ccccc3)n2)ccc1OCc1nc(-c2ccco2)oc1C [Example 143, 1-({3-[(4-{[2-(2-furyl)-5-methyl-1,3-oxazol-4-yl]methoxy}-3-methoxybenzyl)oxy]-1-phenyl-1H-pyrazol-5-yl}methyl)-1H-1,2,4-triazole] |
| 164 to 165 | COc1cc(COc2nn(-c3ccccc3)cc2/C=C\c2csc(C)n2)ccc1OCc1nc(-c2ccco2)oc1C [Example 150 (Z form), 2-(2-furyl)-4-({2-methoxy-4-[({4-[(Z)-2-(2-methyl-1,3-thiazol-4-yl)ethenyl]-1-phenyl-1H-pyrazol-3-yl}oxy)methyl]phenoxy}methyl)-5-methyl-1,3-oxazole] |
| 108 to 109 | CCc1nc(/C=C/c2cn(-c3ccccc3)nc2OCc2ccc(OCc3nc(-c4ccco4)oc3C)c(OC)c2)cs1 [Example 152 (E form), 4-({4-[({4-[(E)-2-(2-ethyl-1,3-thiazol-4-yl)ethenyl]-1-phenyl-1H-pyrazol-3-yl}oxy)methyl]-2-methoxyphenoxy}methyl)-2-(2-furyl)-5-methyl-1,3-oxazole] |
| 132 to 133 | CCc1nc(/C=C\c2cn(-c3ccccc3)nc2OCc2ccc(OCc3nc(-c4ccco4)oc3C)c(OC)c2)cs1 [Example 152 (Z form), 4-({4-[({4-[(Z)-2-(2-ethyl-1,3-thiazol-4-yl)ethenyl]-1-phenyl-1H-pyrazol-3-yl}oxy)methyl]-2-methoxyphenoxy}methyl)-2-(2-furyl)-5-methyl-1,3-oxazole] |
| 149 to 150 | CCOc1cc(COc2nn(-c3ccccc3)cc2C=O)ccc1OCc1nc(-c2ccco2)oc1C [Example 154, 3-[(3-ethoxy-4-{[2-(2-furyl)-5-methyl-1,3-oxazol-4-yl]methoxy}benzyl)oxy]-1-phenyl-1H-pyrazole-4-carbaldehyde] |
| 177 to 178 | COc1cc(COc2nn(-c3ccccc3)cc2/C=C/C(C)=O)ccc1OCc1nc(-c2ccco2)oc1C [Example 155, (3E)-4-{3-[(4-{[2-(2-furyl)-5-methyl-1,3-oxazol-4-yl]methoxy}-3-methoxybenzyl)oxy]-1-phenyl-1H-pyrazol-4-yl}-3-buten-2-one] |
| 167 to 168 | CCCC(=O)/C=C/c1cn(-c2ccccc2)nc1OCc1ccc(OCc2nc(-c3ccco3)oc2C)c(OC)c1 [Example 157, (1E)-1-{3-[(4-{[2-(2-furyl)-5-methyl-1,3-oxazol-4-yl]methoxy}-3-methoxybenzyl)oxy]-1-phenyl-1H-pyrazol-4-yl}-1-hexen-3-one] |
| 138 to 140 | COc1cc(COc2nn(-c3ccccc3)cc2/C=C/P(=O)(O)O)ccc1OCc1nc(-c2ccco2)oc1C [Example 158, (E)-2-{3-[(4-{[2-(2-furyl)-5-methyl-1,3-oxazol-4-yl]methoxy}-3-methoxybenzyl)oxy]-1-phenyl-1H-pyrazol-4-yl}ethenylphosphonic acid] |
| 173 to 174 | COc1cc(COc2nn(-c3ccccc3)cc2/C=C/C(=O)N(C)OC)ccc1OCc1nc(-c2ccco2)oc1C [Example 162, (2E)-3-{3-[(4-{[2-(2-furyl)-5-methyl-1,3-oxazol-4-yl]methoxy}-3-methoxybenzyl)oxy]-1-phenyl-1H-pyrazol-4-yl}-N-methoxy-N-methyl-2-propenamide] |
| 173 to 174 | COC(=O)c1cc(COc2nn(-c3ccccc3)cc2C=O)ccc1OCc1nc(-c2ccco2)oc1C [Example 163, methyl 5-{[(4-formyl-1-phenyl-1H-pyrazol-3-yl)oxy]methyl}-2-{[2-(2-furyl)-5-methyl-1,3-oxazol-4-yl]methoxy}benzoate] |
| 122 to 123 | Cc1oc(-c2ccco2)nc1COc1ccc(COc2nn(-c3ccccc3)cc2C=O)cn1 [Example 164, 3-[(6-{[2-(2-furyl)-5-methyl-1,3-oxazol-4-yl]methoxy}pyridin-3-yl)methoxy]-1-phenyl-1H-pyrazole-4-carbaldehyde] |
| 135 to 136 | CCOC(=O)/C=C/c1cn(C)nc1OCc1ccc(OCc2nc(-c3ccco3)oc2C)c(OC)c1 [Example 165, ethyl (2E)-3-{3-[(4-([2-(2-furyl)-5-methyl-1,3-oxazol-4-yl]methoxy}-3-methoxybenzyl)oxy]-1-methyl-1H-pyrazol-4-yl)-2-propenoate] |
| 134 to 135 | COc1cc(COc2nn(C)cc2/C=C/c2cscn2)ccc1OCc1nc(-c2ccco2)oc1C [Example 167 (E form), 2-(2-furyl)-4-({2-methoxy-4-[({1-methyl-4-[(E)-2-(1,3-thiazol-4-yl)ethenyl]-1H-pyrazol-3-yl}oxy)methyl]phenoxy}methyl)-5-methyl-1,3-oxazole] |
| 97 to 98 | COc1cc(COc2nn(C)cc2/C=C\c2cscn2)ccc1OCc1nc(-c2ccco2)oc1C [Example 167 (Z form), 2-(2-furyl)-4-({2-methoxy-4-[({1-methyl-4-[(Z)-2-(1,3-thiazol-4-yl)ethenyl]-1H-pyrazol-3-yl}oxy)methyl]phenoxy}methyl)-5-methyl-1,3-oxazole] |
| 149 to 150 | CCOC(=O)/C=C/c1cn(CC)nc1OCc1ccc(OCc2nc(-c3ccco3)oc2C)c(OC)c1 [Example 168, ethyl (2E)-3-{1-ethyl-3-[(4-{[2-(2-furyl)-5-methyl-1,3-oxazol-4-yl]methoxy}-3-methoxybenzyl)oxy]-1H-pyrazol-4-yl}-2-propenoate] |
| 117 to 118 | CCOC(=O)c1cn(C)nc1OCc1ccc(OCc2nc(-c3ccco3)oc2C)c(OC)c1 [Example 171, ethyl 3-[(4-{[2-(2-furyl)-5-methyl-1,3-oxazol-4-yl]methoxy}-3-methoxybenzyl)oxy]-1-methyl-1H-pyrazole-4-carboxylate] |
| 114 to 115 | CCOC(=O)c1cn(CC)nc1OCc1ccc(OCc2nc(-c3ccco3)oc2C)c(OC)c1 [Example 172, ethyl 1-ethyl-3-[(4-{[2-(2-furyl)-5-methyl-1,3-oxazol-4-yl]methoxy}-3-methoxybenzyl)oxy]-1H-pyrazole-4-carboxylate] |
| 120 to 122 | COc1cc(COc2nn(CCO)cc2CO)ccc1OCc1nc(-c2ccco2)oc1C [Example 176, 2-[3-[(4-{[2-(2-furyl)-5-methyl-1,3-oxazol-4-yl]methoxy}-3-methoxybenzyl)oxy]-4-(hydroxymethyl)-1H-pyrazol-1-yl]ethanol] |
| 155 to 156 | COc1cc(COc2nn(C)cc2C=O)ccc1OCc1nc(-c2ccco2)oc1C [Example 177, 3-[(4-{[2-(2-furyl)-5-methyl-1,3-oxazol-4-yl]methoxy}-3-methoxybenzyl)oxy]-1-methyl-1H-pyrazole-4-carbaldehyde] |
| 103 to 104 | CCn1cc(C=O)c(OCc2ccc(OCc3nc(-c4ccco4)oc3C)c(OC)c2)n1 [Example 178, 1-ethyl-3-[(4-{[2-(2-furyl)-5-methyl-1,3-oxazol-4-yl]methoxy}-3-methoxybenzyl)oxy]-1H-pyrazole-4-carbaldehyde] |
| 149 to 150 | COc1cc(COc2nn(CCO)cc2C=O)ccc1OCc1nc(-c2ccco2)oc1C [Example 179, 3-[(4-{[2-(2-furyl)-5-methyl-1,3-oxazol-4-yl]methoxy}-3-methoxybenzyl)oxy]-1-(2-hydroxyethyl)-1H-pyrazole-4-carbaldehyde] |
| 144 to 145 | COc1cc(COc2nn(-c3ccccc3)cc2/C=C/c2cncn2C)ccc1OCc1nc(-c2ccco2)oc1C [Example 181, 2-(2-furyl)-4-({2-methoxy-4-[({4-[(E)-2-(1-methyl-1H-imidazol-5-yl)ethenyl]-1-phenyl-1H-pyrazol-3-yl}oxy)methyl]phenoxy}methyl)-5-methyl-1,3-oxazole] |
| 130 to 132 | CCn1cncc1/C=C/c1cn(-c2ccccc2)nc1OCc1ccc(OCc2nc(-c3ccco3)oc2C)c(OC)c1 [Example 182, 4-({4-[({4-[(E)-2-(1-ethyl-1H-imidazol-5-yl)ethenyl]-1-phenyl-1H-pyrazol-3-yl}oxy)methyl]-2-methoxyphenoxy}methyl)-2-(2-furyl)-5-methyl-1,3-oxazole] |
| 129 to 131 | COc1cc(COc2nn(-c3ccccc3)cc2/C=C/C(N)=S)ccc1OCc1nc(-c2ccco2)oc1C [Example 184, (2E)-3-{3-[(4-{[2-(2-furyl)-5-methyl-1,3-oxazol-4-yl]methoxy}-3-methoxybenzyl)oxy]-1-phenyl-1H-pyrazol-4-yl}-2-propenethioamide] |
| 130 to 131 | COc1cc(COc2nn(-c3ccccc3)cc2/C=C/c2nc(C)cs2)ccc1OCc1nc(-c2ccco2)oc1C [Example 185, 2-(2-furyl)-4-({2-methoxy-4-[({4-[(E)-2-(4-methyl-1,3-thiazol-2-yl)ethenyl]-1-phenyl-1H-pyrazol-3-yl}oxy)methyl]phenoxy}methyl)-5-methyl-1,3-oxazole] |
